Experiments:
[1] = tested on: MRC-5 cell line (diploid human embryonic lung fibroblast); assay: Cytotoxicity on MRC-5 cells; assay type: cell-based
Description: [table] An important part of the screen is the evaluation of all compounds for cytotoxicity using the diploid human embryonic lung fibroblast MRC-5 cell line (Figure 2). Further evaluation of cytotoxicity also takes advantage of the assays for intracellular protozoan parasites, as in the case of L. infantum and T. cruzi, which include murine peritoneal macrophage host cells and MRC-5SV2 human lung fibroblast cells, respectively, in the culture system.

[2] = tested on: Onchocerca (lienalis or ochengi) microfilariae; assay: Anti-Onchocerca microfilariae motility assay; assay type: cell-based, Onchocerca lienalis or O. ochengi
Protocol: (§1) The compound set was tested against the following parasites: intra-erythrocytic forms in human red blood cells of P. falciparum K1 strain (malaria), [16], [32], [33], [35], bloodstream forms of T. brucei Squib 427 strain (human African trypanosomiasis, HAT), [31], [32], [34], intracellular amastigotes of T. cruzi Tulahuen CL2, beta- galactosidase strain (Chagas' Disease), [32]–[35], intracellular amastigotes of L. infantum MHOM/MA(BE)/67 (leishmaniasis), [32]–[36], larval and/or adult worms of S. mansoni Puerto Rican strain (schistosomiasis), [31], [37], microfilariae of B. malayi (lymphatic filariasis), [30] and microfilariae of O. ochengi or O. lienalis (onchocerciasis), [30]. It should be noted that the human pathogen for onchocerciasis is Onchocerca volvulus, but due to lack of a suitable in vitro assay or animal models for this pathogen, O. ochengi and lienalis, which are both animal pathogens, are used in the primary and secondary assays, [30].
4240 compound s were screened against O. ochengi at the University of Buea in Cameroon, while a subset of […] compounds was successfully screened in UK by the Northwick Park Institute for Medical Research against O. lienalis, at a uniform molarity. […] After removing molecules that were toxic to mammalian cells (IC50<5 µg/ml), 292 molecules remained for further evaluation. […] From the latter sub-set, […] distinct chemical series and one singleton [structure # 35] were active against both microfilaria and adults. One series [structures # 2, 3] was deemed not interesting due to lack of selectivity against mammalian cells. The remaining series is being transferred to ANDI for further progression as part of a new collaboration.

[3] = tested on: Schistosoma mansoni adult worms; assay: Anti-Schistosoma activity assay (adult worm motility); assay type: cell-based; settings: S. mansoni adult worms; 12.5 µM (method: 10 µg/ml or 12.5 µM)
Protocol: as §1
A subset of 9478 of the 10,000 compound collection was tested against the Puerto Rican strain of S. mansoni. 6144 of these were tested in a primary larval assay followed by the ex-vivo adult secondary screen. The remainder was screened only in the adult assay. […] The 65 compounds were sorted by chemical attractiveness, potency against adult schistosomes in culture, selectivity against other parasites, and toxicity to mammalian cells in culture. Based on this analysis, 5 series encompassing 13 compounds were chosen for advancement through the African Network for Drug and Diagnostic Innovation (ANDI) and other PDPs. Representative structures [structures # 13, 27, 28] are shown (Table S1). These compounds are unburdened by obvious toxic moieties, have acceptable compliance with the Lipinski rules, are selectively active against schistosomes and are not overtly toxic to mammalian cells. It has unfortunately not been possible to titrate all of these hits in culture; of about 50% for which such data are available, none has an IC50<2 µg/ml (which is the initial potency criteria).

[4] = tested on: Trypanosoma cruzi, Tulahuen CL2 strain; assay: Antitrypanosomal activity assay, T. cruzi in MRC-5 cells; assay type: cell-based; settings: T. cruzi Tulahuen CL2 in MRC-5 cells, 7 days
Protocol: as §1
171 of the 744 actives passed the initial criterion of IC50<1 µg/ml for T. cruzi Tulahuen CL2, beta galactosidase strain maintained on MRC-5SV2 cells in MEM medium (MRC-5 cell/parasite inoculum: 4.10^3 cells/well+4.10^4 parasites/well), supplemented with […] L-glutamine, 16.5 mM NaHCO3 and 5% heat inactivated fetal calf serum. […] Of these, 109 were eliminated [structures #1–6] for poor selectivity versus mammalian cells (SI<50) and an additional 11 due to undesirable chemical attributes. The remaining 51 compounds were sorted into 10 series (45 compounds) and 6 singletons [structures # 21, 22]. Two of these series with excellent potency against T. cruzi, limited activity against other protozoa and SI values >50 (not shown), have been transferred to DNDi for further evaluation.

[5] = tested on: Trypanosoma brucei brucei Squib-427 strain; assay: Antitrypanosomal activity assay, T. brucei (resazurin); assay type: cell-based; settings: T. brucei Squib 427 bloodstream forms, 72 h
Protocol: as §1

[6] = tested on: Plasmodium falciparum K1 strain; assay: Anti-Plasmodium activity assay (Malstat); assay type: cell-based; settings: P. falciparum K1, 72 h
Protocol: as §1

[7] = tested on: Brugia malayi microfilariae; assay: Anti-Brugia malayi microfilariae motility assay; assay type: cell-based; settings: B. malayi microfilariae; 12.5 µM
Protocol: as §1
As result of logistics issues attributed to lost shipments of some compounds, only 6160 molecules of the 10,000 compound set were tested, at a uniform molarity, against B. malayi, including 6063 against microfilariae and 756 against adult worms (these sets overlap). […] Greatest priority was given to compounds with activity against adult worms, as no macrofilaricide is available for use in control campaigns and the activity of ivermectin as a microfilaricidal agent is unlikely to be bettered in a new series. Of the test set, 53 compounds met the activity criterion for microfilariae (100% motility reduction) and an additional 58 inhibited adult worm motility ≥75% at 10 µM. These were titrated to determine an IC50 value to support prioritization. Following cytotoxicity triage [structures # 1, 4, 6], eight compounds met the activity criterion for adult worms (i.e., 100% inhibition of adult worm motility), four of which were also active against microfilariae [structures # 14, 29, 30, 32]. […] Of these, the most interesting was TDR76699 [structure # 29]; this compound has very good activity against adult worms (IC50 = 0.1 µg/ml) and is also active against microfilariae (IC50 = 0.7 µg/ml). None of the other compounds tested against adult parasites had IC50 values ≤0.5 µg/ml, a threshold which would reduce concerns about specificity. However, a few series [structures # 31, 33, 34], appear interesting for future medicinal chemistry projects.

Row | Structure (SMILES) | CYT IC50 [1] [µg/mL] | ONC/MF % Motility Reduction at 12.5µM [2] [%] | SCH % Motility Reduction at 12.5µM [3] [%] | CHA IC50 [4] [µg/mL] | HAT IC50 [5] [µg/mL] | MAL IC50 [6] [µg/mL] | LF/MF % Motility Reduction at 12.5µM [7] [%]
1 | O=S(=O)(c1cccnc1)N1CCN(c2ccc(-c3cccs3)nn2)CC1 [TDR85115] | >11.6 | 0 | 0 | >11.6 | >11.6 | >11.6 | 50
2 | CS(=O)(=O)c1ccc2nc(N(Cc3cccnc3)C(=O)c3ccc4ccccc4c3)sc2c1 [TDR84431] | >14.21 | 0 | 0 | 0.23 | >14.21 | >14.21 | 0
3 | CSc1ccc2nc(N(Cc3cccnc3)C(=O)c3ccc(C(C)(C)C)cc3)sc2c1 [TDR84420] | 7.16 | 25 | 0 | 0.56 | >13.43 | 0.15 | 0
4 | CCCn1/c(=N/C(=O)C2=COCCO2)sc2c(C)ccc(OC)c21 [TDR82272] | >10.45 | 20 | 0 | 0.89 | >10.45 | 3.18 | 0
5 | CSc1cccc(C(=O)N(Cc2cccnc2)c2nc3ccc(S(C)(=O)=O)cc3s2)c1 [TDR84433] | >14.09 | 0 | 0 | 0.38 | >14.09 | 8.28 | 0
6 | Cc1c(C(=O)N2CCC(C)CC2)sc2nc(-c3ccc(F)cc3)cn12 [TDR77657] | >10.72 | 0 | 0 | >10.72 | 0.42 | >10.72 | 0
7 | O=C(Cc1ccc(F)cc1)Nc1nc(-c2ccccn2)cs1 [TDR82963] | >9.4 | 23 | 0 | 0.33 | 0.31 | 2.97 | 0
8 | O=C(c1ccccc1)N1CCN(c2ccc(Nc3ccccn3)nn2)CC1 [TDR86082] | >10.8 | 0 | 0 | >10.8 | >10.8 | >10.8 | 0
9 | CCOc1ccc2nc(N(Cc3cccnc3)C(=O)c3ccc(Cl)s3)sc2c1 [TDR81636] | >12.2 | 11 | 0 | 0.66 | 3.52 | 3.55 | 0
10 | CC(C)(C)n1ncc2c(=O)n(CCC(=O)NCc3ccccc3Cl)cnc21 [TDR84851] | >11.64 | 0 | 100 | >11.64 | >11.64 | >11.64 | 20
11 | COc1ccc(SCC(=O)Nc2nc(-c3ccccn3)cs2)cc1 [TDR83845] | >10.72 | 86 | 0 | 0.36 | 0.35 | >10.72 | 0

— PMC3243694, “Integrated Dataset of Screening Hits against Multiple Neglected Disease Pathogens” (PLoS Neglected Tropical Diseases, 2011)
